Results: US10301304B2, “Selective inhibitor of phosphatidylinositol 3-kinase-gamma” (VERTEX PHARMACEUTICALS INCORPORATED, priority 2013, dated 2019)
Where two headings read alike, the source gives them in different places.

How the values were obtained:
[1] = system: HUVECs; experiment: HUVEC Proliferation Assay; assay type: cell-based, human; details: for IC50: Homo sapiens, HUVEC
Description: PI3Ks are important signaling molecules downstream of a number of growth factors that regulate cell survival, growth and cell cycle entry. Both PI3K-alpha and PI3K-beta isoforms regulate cell cycle entry; inhibition of either isoform leads to reduced cell growth. HUVECs are primary human umbilical vein endothelial cells which express both the PI3Kα and PI3Kβ isoforms. Inhibition of either or both PI3K-alpha or PI3K-beta isoforms will inhibit the cell growth of HUVECs. Compounds are plated onto HUVECs, cell proliferation/viability is measure 96 hours post compound treatment using cell titer-glo to measure the ATP content of the cells in the well. Lack of or reduced proliferation is a measure of the extent of PI3K-alpha and/or PI3K-beta inhibition.

[2] = target: CYP2B6 (Homo sapiens, UniProt P20813); experiment: Metabolism by Recombinant CYP Enzymes; assay type: in vitro ADME; details: 1 μM, recombinant CYP2B6, NADPH
Description: (§1) Microsomes that contained recombinant CYP enzymes (CYP1A2, 2B6, 2C8, 2C9, 2C19, 2D6, 2E1 and 3A4) were used to determine which CYP catalyzes the oxidation of Compound 1. Accordingly, Compound 1 (1 μM) was incubated with individual recombinant CYPs in the presence of the cofactor NADPH. The percent parent drug remaining at the end of the incubation period was determined by LC-MS/MS and compared to that present at the beginning.

[3] = target: CYP1A2 (Homo sapiens, UniProt P05177); experiment: Metabolism by Recombinant CYP Enzymes; assay type: in vitro ADME; details: 1 μM, recombinant CYP1A2, NADPH
Description: as §1

[4] = target: CYP2E1 (Homo sapiens, UniProt P05181); experiment: Metabolism by Recombinant CYP Enzymes; assay type: in vitro ADME; details: 1 μM, recombinant CYP2E1, NADPH
Description: as §1

[5] = target: CYP3A4 (Homo sapiens, UniProt P08684); experiment: Metabolism by Recombinant CYP Enzymes; assay type: in vitro ADME; details: 1 μM
Description: as §1

[6] = target: CYP2C8 (Homo sapiens, UniProt P10632); experiment: Metabolism by Recombinant CYP Enzymes; assay type: in vitro ADME; details: 1 μM, recombinant CYP2C8, NADPH
Description: as §1

[7] = target: CYP2D6 (Homo sapiens, UniProt P10635); experiment: Metabolism by Recombinant CYP Enzymes; assay type: in vitro ADME; details: 1 μM, recombinant CYP2D6, NADPH
Description: as §1

[8] = target: CYP2C9 (Homo sapiens, UniProt P11712); experiment: Metabolism by Recombinant CYP Enzymes; assay type: in vitro ADME; details: 1 μM, recombinant CYP2C9, NADPH
Description: as §1

[9] = target: CYP2C19 (Homo sapiens, UniProt P33261); experiment: Metabolism by Recombinant CYP Enzymes; assay type: in vitro ADME; details: 1 μM, recombinant CYP2C19, NADPH
Description: as §1

[10] = system: CD40 induced colitis; experiment: CD40 induced colitis (IBD) model, body weight loss; assay type: in vivo, mouse
Description: The PI3Kγ inhibitor, Compound 1, was tested in a CD40 induced colitis model to determine its effect on disease course. The CD40 model of IBD is induced by injecting an anti-CD40 monoclonal antibody (agonist, i.e., activating antibody versus neutralizing antibody) into T and B cell deficient mice (Rag 1−/− mice) to induce both systemic and intestinal inflammation that leads to colitis and wasting disease via the innate immune pathway. (See, e.g., Immunity 25, 309-318, August 2006). Briefly, Rag1 knock-out mice were injected IP with the anti-CD40 monoclonal antibody FGK45. Starting on Day 0, mice were treated with PBS, vehicle or Compound 1 at 5 mg/kg b.i.d. or 10 mg/kg b.i.d. Compound 1 was administered IP for 7 days on a 10/14-hour b.i.d. dosing regimen. Compound 1 was formulated in 5% NMP/15% PEG-400/80% in a 0.5% HPMC-E50 solution in water. At study termination, serum and colon samples were collected at 2 hours following the last dose for drug concentration analysis. Body weights were measured daily during the study. Compound 1 concentrations were analyzed in the plasma samples collected 2 hours following the final dose at study termination. Concentrations were determined using a high performance liquid chromatography/tandem mass spectrometry (HPLC/MS/MS) method.

[11] = system: collagen-induced arthritis (CIA); experiment: therapeutic mouse collagen-induced arthritis (CIA) model; assay type: in vivo; parameters: Histopathology Summed Score, Knees / Therapeutic Paw Score AUC / Histopathology Summed Score, Six Joints / Histopathology Summed Score, Paws: scale not given here; details: for All Paw Score AUC / Histopathology Summed Score, Knees / Histopathology Summed Score, Paws / Histopathology Summed Score, Six Joints / Prophylactic Paw Score AUC / Therapeutic Paw Score AUC: 10 days; for Arthritis scores measured daily, all paws (FIG. 1): *d2-11, vs vehicle
Description: Compound 1 was tested in the therapeutic mouse collagen-induced arthritis (CIA) model at 2.5 mg/kg BID (5 mg/kg/day), 5 mg/kg BID (10 mg/kg/day) or 10 mg/kg BID (20 mg/kg/day). Fostamatinib, a Syk small molecule inhibitor used as a reference standard, was dosed orally at 30 mg/kg BID (60 mg/kg/day). Compounds were dosed for 10 days in a 12/12-hour BID dosing regimen until the end of the study. Compound 1 was formulated in 0.2% MC, 1% SLS. Dosing volume was 10 mL/kg. Terminal plasma samples were collected at 2, 4 and 12 hours post last dose. All four paws and both knees were collected and processed for histopathology.

CYP3A4, sequence (P08684 whole entry): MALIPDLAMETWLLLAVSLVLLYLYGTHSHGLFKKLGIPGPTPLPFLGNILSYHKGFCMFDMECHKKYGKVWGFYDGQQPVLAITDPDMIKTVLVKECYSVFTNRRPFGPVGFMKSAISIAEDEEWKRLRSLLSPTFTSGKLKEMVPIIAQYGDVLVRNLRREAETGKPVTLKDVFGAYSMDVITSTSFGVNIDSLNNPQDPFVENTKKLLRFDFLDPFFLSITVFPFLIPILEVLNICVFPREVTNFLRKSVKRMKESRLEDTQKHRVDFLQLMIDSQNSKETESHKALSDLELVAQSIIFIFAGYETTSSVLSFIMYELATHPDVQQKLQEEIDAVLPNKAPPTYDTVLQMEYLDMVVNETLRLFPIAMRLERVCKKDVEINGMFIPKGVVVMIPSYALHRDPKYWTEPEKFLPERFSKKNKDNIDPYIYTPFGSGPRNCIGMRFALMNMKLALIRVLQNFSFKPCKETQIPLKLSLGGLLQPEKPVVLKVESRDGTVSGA
CYP2C19, sequence (P33261 whole entry): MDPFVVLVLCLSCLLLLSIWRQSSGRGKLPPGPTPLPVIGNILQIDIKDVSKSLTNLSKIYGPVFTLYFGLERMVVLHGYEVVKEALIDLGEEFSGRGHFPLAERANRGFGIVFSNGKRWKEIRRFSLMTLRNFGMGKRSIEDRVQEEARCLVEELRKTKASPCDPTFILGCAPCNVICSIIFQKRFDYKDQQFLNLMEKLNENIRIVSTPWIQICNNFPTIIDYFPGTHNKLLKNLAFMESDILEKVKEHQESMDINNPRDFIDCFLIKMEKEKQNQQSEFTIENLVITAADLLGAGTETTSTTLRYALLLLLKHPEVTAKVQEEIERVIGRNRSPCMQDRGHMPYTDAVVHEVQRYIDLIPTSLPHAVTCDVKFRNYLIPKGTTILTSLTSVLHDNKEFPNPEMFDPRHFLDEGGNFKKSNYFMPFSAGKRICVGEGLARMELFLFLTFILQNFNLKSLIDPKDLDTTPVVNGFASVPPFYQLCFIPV
CYP2E1, sequence (P05181 whole entry): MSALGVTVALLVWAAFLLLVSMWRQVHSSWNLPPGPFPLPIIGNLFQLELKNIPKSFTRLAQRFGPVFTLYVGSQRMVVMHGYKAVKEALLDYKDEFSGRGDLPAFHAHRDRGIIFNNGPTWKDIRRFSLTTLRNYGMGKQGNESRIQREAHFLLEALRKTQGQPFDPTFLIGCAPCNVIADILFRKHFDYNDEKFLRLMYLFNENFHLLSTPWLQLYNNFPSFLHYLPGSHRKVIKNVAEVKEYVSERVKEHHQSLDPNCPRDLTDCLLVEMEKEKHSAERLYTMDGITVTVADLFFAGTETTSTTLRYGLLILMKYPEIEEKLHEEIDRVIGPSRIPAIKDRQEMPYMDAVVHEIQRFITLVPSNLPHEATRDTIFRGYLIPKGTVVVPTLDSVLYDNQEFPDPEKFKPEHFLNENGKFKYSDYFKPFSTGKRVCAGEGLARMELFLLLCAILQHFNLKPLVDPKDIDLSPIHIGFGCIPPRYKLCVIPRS
CYP1A2, sequence (P05177 whole entry): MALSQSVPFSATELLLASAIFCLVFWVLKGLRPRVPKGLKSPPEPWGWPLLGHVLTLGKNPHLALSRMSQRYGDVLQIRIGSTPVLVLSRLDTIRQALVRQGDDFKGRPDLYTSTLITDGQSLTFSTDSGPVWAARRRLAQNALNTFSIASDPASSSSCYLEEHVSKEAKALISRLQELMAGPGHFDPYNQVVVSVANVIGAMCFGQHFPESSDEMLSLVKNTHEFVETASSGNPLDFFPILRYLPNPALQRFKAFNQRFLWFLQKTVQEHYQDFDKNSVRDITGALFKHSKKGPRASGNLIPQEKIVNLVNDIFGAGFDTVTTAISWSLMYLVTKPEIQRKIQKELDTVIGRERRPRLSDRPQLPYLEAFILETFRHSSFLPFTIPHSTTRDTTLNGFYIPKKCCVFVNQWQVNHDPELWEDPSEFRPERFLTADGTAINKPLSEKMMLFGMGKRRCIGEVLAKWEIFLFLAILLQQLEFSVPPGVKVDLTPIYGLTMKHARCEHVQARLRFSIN
CYP2B6, sequence (P20813 whole entry): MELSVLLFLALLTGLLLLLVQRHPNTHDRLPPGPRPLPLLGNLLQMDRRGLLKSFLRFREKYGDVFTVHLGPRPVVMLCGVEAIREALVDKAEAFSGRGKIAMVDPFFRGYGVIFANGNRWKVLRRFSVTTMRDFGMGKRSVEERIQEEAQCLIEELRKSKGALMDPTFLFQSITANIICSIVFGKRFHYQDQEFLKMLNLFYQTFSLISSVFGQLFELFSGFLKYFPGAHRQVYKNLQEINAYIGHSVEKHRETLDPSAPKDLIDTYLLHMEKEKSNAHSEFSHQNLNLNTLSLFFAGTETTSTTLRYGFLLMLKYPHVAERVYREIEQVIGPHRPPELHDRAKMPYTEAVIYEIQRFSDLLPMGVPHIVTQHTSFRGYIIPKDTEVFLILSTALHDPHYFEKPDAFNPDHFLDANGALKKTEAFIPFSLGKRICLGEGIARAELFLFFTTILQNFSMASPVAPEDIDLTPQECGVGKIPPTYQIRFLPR
CYP2D6, sequence (P10635 whole entry): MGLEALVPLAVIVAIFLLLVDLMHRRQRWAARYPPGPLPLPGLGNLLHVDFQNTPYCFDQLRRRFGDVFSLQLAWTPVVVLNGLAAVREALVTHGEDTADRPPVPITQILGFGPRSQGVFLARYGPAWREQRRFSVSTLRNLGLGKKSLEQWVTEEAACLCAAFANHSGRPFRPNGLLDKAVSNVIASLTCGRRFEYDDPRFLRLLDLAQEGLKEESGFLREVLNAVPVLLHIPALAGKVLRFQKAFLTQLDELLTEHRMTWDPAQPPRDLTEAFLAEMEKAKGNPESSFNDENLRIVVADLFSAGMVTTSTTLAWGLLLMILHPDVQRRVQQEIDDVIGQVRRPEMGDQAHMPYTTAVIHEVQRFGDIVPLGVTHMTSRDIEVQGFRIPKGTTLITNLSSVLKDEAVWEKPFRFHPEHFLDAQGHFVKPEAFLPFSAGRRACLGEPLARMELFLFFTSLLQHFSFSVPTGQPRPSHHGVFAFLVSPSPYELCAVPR
CYP2C9, sequence (P11712 whole entry): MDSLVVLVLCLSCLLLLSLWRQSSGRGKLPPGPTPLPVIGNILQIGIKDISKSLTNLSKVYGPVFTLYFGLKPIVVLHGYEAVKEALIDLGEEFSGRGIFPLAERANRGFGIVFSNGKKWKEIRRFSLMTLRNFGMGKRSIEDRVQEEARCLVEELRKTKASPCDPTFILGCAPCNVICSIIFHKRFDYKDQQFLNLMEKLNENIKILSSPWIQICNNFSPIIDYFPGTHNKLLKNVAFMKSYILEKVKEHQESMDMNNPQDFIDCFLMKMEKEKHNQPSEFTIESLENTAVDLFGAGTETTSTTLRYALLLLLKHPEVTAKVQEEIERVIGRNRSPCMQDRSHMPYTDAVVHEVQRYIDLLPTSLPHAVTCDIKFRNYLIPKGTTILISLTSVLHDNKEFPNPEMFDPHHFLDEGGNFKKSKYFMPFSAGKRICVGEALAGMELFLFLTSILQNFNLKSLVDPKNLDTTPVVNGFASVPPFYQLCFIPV
CYP2C8, sequence (P10632 whole entry): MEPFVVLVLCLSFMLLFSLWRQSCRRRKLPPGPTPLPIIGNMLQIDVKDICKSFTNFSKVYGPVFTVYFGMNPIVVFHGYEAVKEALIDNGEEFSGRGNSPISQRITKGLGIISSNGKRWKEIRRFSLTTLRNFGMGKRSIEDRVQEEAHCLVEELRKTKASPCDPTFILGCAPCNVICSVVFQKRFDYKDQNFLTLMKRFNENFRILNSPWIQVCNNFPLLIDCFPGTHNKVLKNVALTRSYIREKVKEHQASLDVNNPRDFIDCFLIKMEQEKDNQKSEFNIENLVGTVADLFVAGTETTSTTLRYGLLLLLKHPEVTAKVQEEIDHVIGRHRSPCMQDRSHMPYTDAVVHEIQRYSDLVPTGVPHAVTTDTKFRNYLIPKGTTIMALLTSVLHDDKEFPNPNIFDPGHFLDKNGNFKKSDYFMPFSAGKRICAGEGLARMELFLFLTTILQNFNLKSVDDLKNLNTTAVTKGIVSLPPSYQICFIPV

## Cc1cc(-c2cncc([C@@H](O)C(F)(F)F)c2)nc2c1C(=O)N(c1cnn(CC(F)F)c1)C2(C)C [Compound 1, (R)-6-(1-(2,2-difluoroethyl)-1H-pyrazol-4-yl)-4,7,7-trimethyl-2-(5-(2,2,2-trifluoro-1-hydroxyethyl)pyridin-3-yl)-6,7-dihydro-5H-pyrrolo[3,4-b]pyridin-5-one]
[1]; HUVEC proliferation
  selectivity over PI3K-alpha/beta: > 74 fold
[1]; 96 h, HUVEC Proliferation, 96 hours, PI3K-alpha/beta dependent, read-out: IC50 Avg +/− SD
  IC50: > 19 µM
[1]; footnote * of Table 4, no anchor in the table, read-out: Individual assay data (IC50)
  IC50: > 20 µM
[1]; summary
  selectivity over PI3K-alpha and PI3K-beta in cell based assays: 40-80 fold
[2]
  % Parent Remaining @ 30 min: 107%
[3]
  % Parent Remaining @ 30 min: 105%
[4]
  % Parent Remaining @ 30 min: 105%
[5]; in words
  Metabolism by recombinant CYPs: detected only in the incubation with CYP3A4
[5]; recombinant CYP3A4, NADPH
  % Parent Remaining @ 30 min: 92%
[6]
  % Parent Remaining @ 30 min: 105%
[7]
  % Parent Remaining @ 30 min: 100%
[8]
  % Parent Remaining @ 30 min: 108%
[9]
  % Parent Remaining @ 30 min: 118%
[10]; 5 mg/kg b.i.d. IP, *p<0.05 d3, **p<0.01 d4, vs vehicle
  body weight loss (FIG. 4): significantly inhibited
[10]; 10 mg/kg b.i.d. IP, ***p<0.001 d3-4, vs vehicle
  body weight loss (FIG. 4): significantly inhibited
[11]; 2.5 mg/kg BID
  reduction of arthritis scores AUC, prophylactic paws only: 42%
  reduction of clinical arthritis scores AUC vs vehicle, all paws: 28%
  All Paw Score AUC: *22.76
  Histopathology Summed Score, Knees: 6.83
  Histopathology Summed Score, Paws: 8.14
  Histopathology Summed Score, Six Joints: 7.70
  Prophylactic Paw Score AUC: *41.35
  Therapeutic Paw Score AUC: 49.25
  Arthritis scores measured daily, all paws (FIG. 1): significantly reduced toward normal
[11]; 2.5 mg/kg BID, *d2, 4-11
  clinical arthritis scores, prophylactic paws (FIG. 3): significantly reduced
[11]; 5 mg/kg BID
  reduction of arthritis scores AUC, prophylactic paws only: 81%
  reduction of clinical arthritis scores AUC vs vehicle, all paws: 63%
  All Paw Score AUC: *11.84
  Histopathology Summed Score, Knees: *2.53
  Histopathology Summed Score, Paws: *3.64
  Histopathology Summed Score, Six Joints: *3.27
  Prophylactic Paw Score AUC: *13.35
  Therapeutic Paw Score AUC: 34.00
  Arthritis scores measured daily, all paws (FIG. 1): significantly reduced toward normal
[11]; 5 mg/kg BID, *d2-11
  clinical arthritis scores, prophylactic paws (FIG. 3): significantly reduced
[11]; 5 mg/kg BID, *d5-11
  clinical arthritis scores, therapeutic paws (FIG. 2): significantly reduced
[11]; 10 mg/kg BID
  reduction of arthritis scores AUC, prophylactic paws only: 98%
  reduction of arthritis scores AUC, therapeutic paws only: 79%
  reduction of clinical arthritis scores AUC vs vehicle, all paws: 89%
  All Paw Score AUC: *3.34
  Histopathology Summed Score, Knees: *0.68
  Histopathology Summed Score, Paws: *0.79
  Histopathology Summed Score, Six Joints: *0.75
  Prophylactic Paw Score AUC: *1.60
  Therapeutic Paw Score AUC: *11.75
  Arthritis scores measured daily, all paws (FIG. 1): significantly reduced toward normal
[11]; 10 mg/kg BID, *d2-11
  clinical arthritis scores, prophylactic paws (FIG. 3): significantly reduced
  clinical arthritis scores, therapeutic paws (FIG. 2): significantly reduced
